In one data set the test system is P388/O tumour cells. The data set can be described thus: Lymphocytic Leukemia P388/0 Test. The class given is in vivo, CD2-F₁ mice. The following applies: for 30-Day Survivors: at optimal dose, survivors per 6 animals of the dose group; for % T/C*: ratio of median survival time treated/control x 100 at optimal dose, excluding 30 day survivors, criterion for activity T/C x 100 ≧120%. An excerpt:
Methods for evaluating the antitumor activity of these compounds are essentially those used in the Tumour Panel by the Development Therapeutics Program, Division of Cancer Treatment, National Cancer Institute, A. Goldin et al., Methods in Cancer Research, Vol. XVI, p.165, Academic Press (1979). Some modifications, in dose level and schedule have been made to increase the testing efficiency.
(§1) CD2-F₁ mice, of the same sex weighing within 20+3g, are used for this test. Control and test animals are injected intraperitoneally with a suspension of 10⁶ viable P388/O tumour cells on day 0. In each test several dose levels which bracket the LD₂₀ for the compound are evaluated; each dose level group contains 6 animals. The test compounds are prepared either in physiologic saline containing 0.05% Tween 80 or distilled water containing 5% dextrose and are administered intraperitoneally on days, 1, 5, and 9 relative to tumor implant. Doses are on a mg/kg basis according to individual animals' body weights. the day of death for each animal is recorded, the median identified for each group and the ratios of median survival time for treated (T)/control (C) groups are calculated. The criterion for activity is T/C x 100 ≧120%.

A short description of data set [1]: LD20 determined in the P388/0 test. The class given is in vivo. On the procedure:
as §1

Setting [2] is: mice, intraperitoneally on days 1, 5 and 9.

Molecules are shown by their SMILES. Structures can show the parent of a compound that is named as a salt.

In the case of `CC(CO)(CO)NCc1cc2c(ccc3oc4ccccc4c32)o1.Cl` [Example 7B, 2-(((Benzofuro(5,4-b)benzofuran-2-yl)methyl)amino)-2-methyl-1,3-propanediol hydrochloride], in the data set on P388/O tumour cells, the “30-Day Survivors” value is 0/6 and the “% T/C*” value came out at 138%. In data set [1] (setting [2]), this compound registered an LD20 of 175 mg/kg.

Turning to `Cn1c2ccccc2c2sc3cc(CNC(C)(CO)CO)ccc3c21` [Example 16, 2-(((10-Methyl-10H-[1]benzothieno[3,2-b]indol-3-yl)methyl)amino)-2-methyl-1,3-propanediol hydrochloride], in the data set on P388/O tumour cells, the “30-Day Survivors” value is recorded as 0/6 and the “% T/C*” value is listed as 170%. The compound further displayed an LD20 in data set [1] (mouse, in vivo, ip) of 250 mg/kg.

Regarding `CC(CO)(CO)NCc1cc2cc3oc4ccccc4c3cc2o1.Cl` [Example 10B, 2-(((Benzofuro(5,6-b)benzofuran-2-yl)methyl)amino)-2-methyl-1,3-propanediol Hydrochloride], in the data set on P388/O tumour cells, the “30-Day Survivors” value was 0/6 and the “% T/C*” value came out at 100%. The compound also displayed an LD20 in data set [1] (setting [2]) above 675 mg/kg.

Turning to `CC(CO)(CO)NCc1ccc2oc3cc4ccoc4cc3c2c1.Cl` [Example 8H, 2(((Benzofuro(5,6-b)benzofuran-8-yl)methyl)amino)-2-methyl-1,3-propanediol Hydrochloride], in the data set on P388/O tumour cells, the “30-Day Survivors” value was 0/6 and the “% T/C*” value is 200%. The compound also came in with an LD20 in data set [1] (setting [2]) of 300 mg/kg.

As to `Cl.Cn1cc(CNC(C)(CO)CO)c2c3sc4ccccc4c3ccc21` [Example 14B, 2-Methyl-2-(((3-methyl-3H-[1]benzothieno[2,3-e]indol-1-yl)methyl)amino)-1,3-propanediol Hydrochloride], in the data set on P388/O tumour cells, the “30-Day Survivors” value is recorded as 0/6 and the “% T/C*” value was 215%. This compound also came in with an LD20 in data set [1] (setting [2]) of 150 mg/kg.

Consider `Cl.Cn1cc(CNC(C)(CO)CO)c2ccc3sc4ccccc4c3c21` [Example 11E, 2-Methyl-2-(((1-methyl-1H-[1]benzothieno[2,3]indol-3-yl)methyl)amino)-1,3-propanediol Hydrochloride], for which, in the data set on P388/O tumour cells, the “30-Day Survivors” value is given as 0/6 and the “% T/C*” value is given as 135%. For the same compound, the LD20 in data set [1] (setting [2]) is given as 250 mg/kg.

In the case of `CC(CO)(CO)NCc1ccc2c(c1)oc1ccc3occc3c12.Cl` [Example 4M, 2(((Benzofuro(5,4-b)benzofuran-8-yl)methyl)amino)-2-methyl-1,3-propanediol Hydrochloride], in the data set with P388/O tumour cells, the “30-Day Survivors” value is listed as 0/6 and the “% T/C*” value stood at 117%. Moreover, the LD20 in data set [1] (setting [2]) is on record as above 450 mg/kg.

For `Cn1c2cccc(CNC(C)(CO)CO)c2c2sc3ccccc3c21` [Example 15D, 2-(((10-Methyl-10H-[1]benzothieno[3,2-b]indol-6-yl)methyl)amino)-2-methyl-1,3-propanediol Hydrochloride], in the data set on P388/O tumour cells, the “30-Day Survivors” value was 5/6 and the “% T/C*” value came to 140%. Further, the LD20 in data set [1] (mouse, in vivo, ip) was found to be 225 mg/kg.

With `Cn1c2ccccc2c2cc(CNC(C)(CO)CO)c3sccc3c21` [Example 2C, 2-Methyl-2-(((10-methyl-10H-thieno(3,2-a)carbazol-4-yl)methyl)amino)-1,3-propanediol methanesulfonate], in the data set on P388/O tumour cells, the “30-Day Survivors” value was 0/6 and the “% T/C*” value was 195%. The compound further had an LD20 in data set [1] (mouse, in vivo, ip) of 375 mg/kg.

On to `Cl.Cn1c2ccccc2c2oc3c(CNC(C)(CO)CO)cccc3c21` [Example 1E, 2-Methyl-2-(((10-methyl-10H-benzofuro(3,2-b)indol-6-yl)methyl)amino)-1,3-propanediol Hydrochloride], for which, in the data set with P388/O tumour cells, the “30-Day Survivors” value is listed as 0/6 and the “% T/C*” value is recorded as 210%. The LD20 in data set [1] (setting [2]) was found to be 150 mg/kg.

Turning to `CC(CO)(CO)NCc1ccc2oc3ccc4occc4c3c2c1.Cl` [Example 5E, 2-(((Benzofuro(5,4-b)benzofuran-9-yl)methyl)amino)-2-methyl-1,3-propanediol Hydrochloride], in the data set with P388/O tumour cells, the “30-Day Survivors” value is 0/6 and the “% T/C*” value is 117%. This compound also showed an LD20 in data set [1] (setting [2]) of 175 mg/kg.

For the compound `Cn1c2ccccc2c2ccc3sc(CNC(C)(CO)CO)cc3c21` [Example 3B, 2-Methyl-2-(((10-methyl-10H-thieno(3,2-a)carbazol-2-yl)methyl)amino)-1,3-propanediol methanesulfonate], in the data set with P388/O tumour cells, the “30-Day Survivors” value is recorded as 0/6 and the “% T/C*” value was found to be 195%. In data set [1] (mouse, in vivo, ip), this compound displayed an LD20 of 375 mg/kg.

Consider `CC(CO)(CO)NCc1cc2oc3ccccc3c2c2ccoc12.Cl` [Example 6E, 2-(((Benzofuro(5,4-b)benzofuran-4-yl)methyl)amino)-2-methyl-1,3-propanediol Hydrochloride], for which, in the data set with P388/O tumour cells, the “30-Day Survivors” value is on record as 1/6 and the “% T/C*” value came to 213%. Also, the LD20 in data set [1] (setting [2]) is 60 mg/kg.

On to `CCn1c2ccccc2c2c3c(ccc21)c(CNC(C)(CO)CO)cn3C` [Example 12C, 2-(((6-Ethyl-1,6-dihydro-1-methylpyrrolo[3,2-c]carbazol-3-yl)methyl)-amino)-2-methyl-1,3-propanediol Hydrochloride 0.6 H₂O], for which, in the data set with P388/O tumour cells, the “30-Day Survivors” value is 0/6 and the “% T/C*” value came to 113%. In addition, in data set [1] (mouse, in vivo, ip), the LD20 is on record as 100 mg/kg.

`CC(CO)(CO)NCc1c2ccoc2cc2c1oc1ccccc12.Cl` [Example 9E, 2-(((Benzofuro(5,6-b)benzofuran-4-yl)methyl)amino)-2-methyl 1,3-propanediol Hydrochloride]: in the data set with P388/O tumour cells, the “30-Day Survivors” value is listed as 0/6 and the “% T/C*” value worked out at 192%. In addition, the LD20 in data set [1] (setting [2]) was 75 mg/kg.

For the compound `Cl.Cn1cc(CNC(C)(CO)CO)c2ccc3oc4ccccc4c3c21` [Example 13E, 2-Methyl-2-(((1-methyl-1H-benzofuro[2,3-g]indole-3-yl)methyl)amino)-1,3-propanediol Hydrochloride], in the data set on P388/O tumour cells, the “30-Day Survivors” value was 0/6 and the “% T/C*” value was determined as 120%. In data set [1] (setting [2]), this compound yielded an LD20 of 115 mg/kg.

The record behind these values is patent publication EP0447703A1, “Hetero polycyclic biocidal compounds, their synthesis and intermediates therefor,formulations containing them and their use in medicine” (THE WELLCOME FOUNDATION LIMITED, priority 1990, dated 1991).
